Patent publication US4863874A, “Method for detecting phosphatidylinositol through binding to Concanavalin A” (The United States of America as represented by the …, priority 1986, dated 1989)
Like-named read-outs stand apart in the source and are kept apart here.

Key:
Con A [1] = target: T1, Con A (Canavalia ensiformis, UniProt P02866); assay: Inhibition of Con A binding to liposomes
T1 construct: purchased Sigma Chemical Co., St. Louis, MO
Experimental: Similar incubations as those described in FIG. 1 were set up with liposomes and Con A. α-MM (FIG. 2a) or myo-inositol (FIG. 2b) were used as inhibitors in the concentrations indicated.
Liposomes containing PL (DMPC, or DMPC/PI) and cholesterol in molar ratios 2/1.5 were used throughout. When PI was included in the liposomes, it was in a 1/1 molar ratio with DMPC. Preparation of liposomes (multilamellar vesicles) is reported in detail (Alving, C. R., Shichijo, S., and Mattsby-Baltzer, I. (1984) in Liposome Technology, (G. Gregoriadis, edition), Vol. II, pages 157-175, CRC, Boca Raton, FL). Briefly, lipids (PLs and cholesterol) were dried in vacuo in pear-shaped flasks and dispersed in a small volume of 0.15M NaCl with the aid of a few acid washed glass beads. The final PL concentration in the aqueous dispersion was 10 mM.
(§1) Studies on the binding of Con A to liposomes were performed as follows: Con A and inhibitors (if present) in the concentrations indicated in the individual figures were incubated with 100 μl of liposomes in a final volume of 1.0 ml of buffer for 45 minutes at 25° C. After incubation, liposomes were washed twice with 2 ml portions of 0.9% NaCl-0.01M NaHCO3 (pH 7.0) and collected by centrifugation at 140,000 g for 5 minutes. Bicarbonate-saline was the buffer used throughout for solution, washing and dilutions. Specific protein binding to liposomes was measured by a Lowry assay adapted to measurement of proteins on liposomes as described previously (Alving, C. R., and Kinsky, S. C. (1971) Immunochemistry, Vol. 8, pages 325-343).
Con A binding to mannose is widely accepted as the major binding specificity for Con A, and inhibition of Con A by α-MM is often used as a criterion for specificity of binding (Lis, H. and Sharon, N. (1973) Ann. Rev. Biochem., Vol. 42, pages 541-574). […] Since Con A binding was increased by the presence of PI in the liposomes we tried to inhibit it by adding increasing concentrations of myo-inositol as a soluble inhibitor. […] Therefore we conclude that the binding of Con A to PI is specific and probably involves the inositol moiety of PI.

Con A [2] = target: T1, Con A; assay: Inhibition of Con A binding to liposomes by mixtures of α-MM and myo-inositol; details: for relative inhibitory potency, PI present in the liposomes: liposomes containing PI; for type of inhibition on simultaneous addition of both inhibitors: simultaneous addition of both inhibitors to Con A and liposomes
Experimental: Similar incubations as those described in FIG. 1 were set up with liposomes and Con A. Myo-inositol and α-MM were mixed together as inhibitors in the concentrations indicated.
as §1
In order to characterize further the binding of Con A to liposomal PLs, and especially to PI, we mixed varying concentrations of α-MM with varrying concentrations of myo-inositol. Our reasoning was that if α-MM and myo-inositol complete for the same binding site we would record similar inhibitions to those shown in FIG. 2. […] The opposite occurred with liposomes lacking PI.

Con A [3] = target: T1, Con A; assay: Binding to Con A by equilibrium dialysis, Scatchard plot
Text: Equilibrium dialysis (microtechnique), as described by Karush, et al. (Karush, F., Karush, S. S. and Eisen, H. N. (1971) in Methods of Immunology and Immunochemistry (C. A. Williams, and M. W. Chase, Edition), Vol. III, pages 383-394, Academic Press, NY) was used to determine the binding of Con A to α-mannose, α-L-fucose, or myo-inositol. The data were plotted according to the method of Scatchard (Scatchard, G. (1949) Ann. N.Y. Acad. Sci., Vol. 51, pages 660-672).
The binding of Con A to α-D-[^3 H]-mannose or myo-[^3 H]-inositol in 0.01M bicarbonate-saline, pH 7.0, at room temperature was investigated by equilibrium dialysis. […] The ratio of the molar concentration of the bound sugar to that of protein is represented by r, c is the molar concentration of free sugar, n is the number of binding sites and K, the binding constant. A molecular weight of 108,000 for Con A was used in the calculations since Con A is a tetramer at neutral pH and the monomer mol wt. is 27,000.

mouse spleen lymphocytes = assay: Suppression of Con A-induced lymphocyte mitogenesis ([3H]-thymidine); format: cell-based; details: for DPM × 10^-3 ([3H]-thymidine, DNA synthesis): geometric mean of quadruplicate ±1 S E, no inhibitor 124 ± 10; for inhibition at 40000 µM: Mus musculus, Lymphocyte, read-out: % SUPPRESSION; for inhibition of Con A-induced lymphocyte mitogenesis: added simultaneously with Con A, in words
Text: Mitogenic determination were made on 12 weeks old male C3 HeB/FeJ mouse (Jackson Laboratory, Bar Harbour, ME) spleen cells. The method used for cell preparation and assay of mitogenic activity is described elsewhere (Richardson, E. C., and Alving, C. R. (1984) Rev. Infect. Dis., Vol. 6, pages 532-534). Briefly spleen cells were extracted into HSB (HEM Research Inc., Rockville, MD), purified on a Ficoll-Hypaque solution, washed twice with HBS and suspended in a medium containing Eagles MEM with Earle's salts (GIBCO, Grand Island, NY), penicillin 100 μg/ml and streptomycin 100 μg/ml (GIBCO), 5×10^-5 M 2-mercaptoethanol (Matheson, Coleman and Bell, Norwood, OH) and 5% fetal bovine serum (MBA, Walkersville, MD). Cultures containing 2×10^5 viable cells/0.2 ml were prepared in 96 wells microtiter plates (Linbro Chemical Co., New Haven, CT) containing Con A ([…] Con A protein/ml culture) with either 40 μmoles/ml α-MM or myo-inositol. Cultures were incubated at 37° C. in 5% CO2 and air for 48 hours. Four hours prior to harvesting, the cells were pulsed with 1 μCi of [^3 H]-thymidine, harvested on glass fiber filters with a cell harvester and the radioactivity determined by liquid scintillation.
Cultures containing 2×10^5 mouse spleen lymphocytes in 0.2 ml medium were stimulated with 6 μg Con A/ml in the presence of 40 μmoles/ml of α-MM or myo-inositol and incubated for 48 hours. DNA synthesis was determined by pulsing the cultures 4 hours prior to harvesting with 1 μCi of [^3 H]-thymidine. The values represent the geometric mean of quadruplicate cultures ±1 S E.

[4] = myo-inositol and α-MM simultaneously used, FIG. 4
[5] = 6 μg Con A/ml, 40 μmoles/ml inhibitor, 48 hours

SMILES | IC50 (Con A [1]) | relative inhibitory potency, PI present in the liposomes (Con A [2]; [4]) | type of inhibition on simultaneous addition of both inhibitors (Con A [2]) | Kd (Con A [3]) | DPM × 10^-3 ([3H]-thymidine, DNA synthesis) (mouse spleen lymphocytes; [5]) | inhibition at 40000 µM (mouse spleen lymphocytes; [5]) | inhibition of Con A-induced lymphocyte mitogenesis (mouse spleen lymphocytes) | inhibition at 1000 µM (Con A [1]; read-out: inhibition of Con A binding to DMPC liposomes) | inhibition at 1000 µM (Con A [1]; read-out: inhibition of Con A binding to DMPC/PI liposomes) | relative inhibitory potency, PI absent from liposomes (Con A [2]; myo-inositol and α-MM simultaneously used, liposomes lacking PI, FIG. 4) | inhibition at 40000 µM (mouse spleen lymphocytes; 48 h) | inhibition of Con A binding to liposomes containing PI (Con A [1]; increasing concentrations, liposomes containing PI) | inhibition of Con A binding to liposomes lacking PI (Con A [1]; increasing concentrations, liposomes lacking PI) | binding to Con A (Con A [3]; 0.01M bicarbonate-saline, pH 7.0, room temperature)
O[C@H]1[C@H](O)[C@@H](O)[C@H](O)[C@@H](O)[C@H]1O [myo-inositol] | 10 mM | the more potent inhibitor | non-competitive | 0.769 mM | 86 ± 8 DPM × 10^-3 | 31% | significant inhibition was observed | – | – | – | – | – | – | –
CO[C@H]1O[C@H](CO)[C@@H](O)[C@H](O)[C@@H]1O [α-MM, α-methyl mannoside] | – | could not provide similar inhibition | non-competitive | – | 1.3 ± 0.2 DPM × 10^-3 | – | more effective inhibitor than myo-inositol | ~50% | ~50% | a more potent inhibitor than inositol | 99% | – | – | –
C[C@@H]1O[C@@H](O)[C@@H](O)[C@H](O)[C@@H]1O [α-L-fucose] | – | – | – | – | – | – | No inhibition | – | – | – | – | no inhibition was observed | no inhibition was observed | No binding could be detected
